{"source": "patent US7939495B2", "about": "“Method for improving skin conditions” (Caregen Co., Ltd, priority 2005, dated 2011)", "key": {"Balb C mice": {"test_system": "Balb C mice", "test": "hair-growth activity after DHT treatment", "format": "in vivo", "details": "observed on day 19 after hair removal; DHT 8 days, then 10 days treatment or none", "from_the_text": "The hairs of the back portions of Balb C mice were removed and a hair loss-inducing substance, dihydrotestosterone (DHT, TCI Inc.) was applied for 8 days to induce […] stage before the proliferation of kerationcytes."}, "[1]": {"test_system": "receptor of basic fibroblast growth factor", "test": "competitive binding assay with 125I-labeled bFGF on BHK cells", "parameters": "species or system hamster", "details": "FIG. 3", "experimental": "To examine the binding potency of the purified acetyl-decapepetide of Example 10 to the receptor of basic fibroblast growth factor, the competitive binding assay was carried out using baby hamster kidney cells (BHK, the Korean Cell Line Bank) and ^125I-labeled bFGF (Amersham) according to process proposed by Baird et al. (Baird, et al., Proc. Natl. Acad. Sci. USA, 85:2324-2328 (1988)). Cells were cultured in 48-well plates for tissue culture and washed with cold Ham's F12 medium containing 0.2% gelatin (Sigma-Aldrich). 200 fmol of ^125I-bFGF and 1-100 nmol of acetyl decapeptide were dissolved in 200 μl of buffer and incubated with cells for 2 hr. Following the collection of cells by centrifugation, the cell membranes were isolated using 0.1% Triton X-100 and the radioactivity of ^125I-bFGF bound to receptors on cell membrane was determined using a gamma scintillation counter (Packard, U.S.A) (FIG. 3)."}, "HaCaT keratinocytes": {"test_system": "HaCaT keratinocytes", "test": "SRB colorimetric assay of HaCaT keratinocyte growth", "format": "cell-based, human", "details": "10 ng/ml or 1,000 ng/ml, 72 hr, FIGS. 6 and 7", "experimental": "To analyze effects of peptides of this invention on proliferation of keratinocytes, SRB (Sulforhodamine B) calorimetric assay was carried out using HaCaT kerationcyte according to Rizzino et al method (Rizzino, et al. Cancer Res., 48:4266 (1988)). HaCaT ketatinocytes (The Korean Cell Line Bank) were cultured in 250 ml-flasks containing EMEM (Eagle's minimal essential media, Gibco, U.S.A.) supplemented with […] (fetal bovine serum). HaCaT ketatinocytes cultured were treated with 0.25% trypsin solution to detach cells from the bottom of culture flasks and centrifuged to collect cell pellets. Cells were resuspended in EMEM not containing FBS, its aliquot (4×10^3) cells was added to each well of 96-well plates and cultured under 7% CO2 for 24 hr at 37° C. After 24-hr culture, the medium was changed with a fresh medium not containing serum and cells were incubated with bFGF or the acetyl-decapeptide of Example 10 (10 ng/ml or 1,000 ng/ml) dissolved in 10% DMSO for 72 hr under the same conditions as described above. After removing supernatants, cells were washed once using PBS (phosphate buffered saline) and incubated with SRB solution (Sigma-Aldrich). Cells were washed with PBS and observed under a microscope to find cell viability. In addition, absorbance at 590 nm was measured to analyze cell proliferation (FIG. 6). […]"}, "hyaluronic acid": {"test_system": "hyaluronic acid", "test": "hyaluronic acid level in HaCaT cells (Hyaluronic acid ELISA kit)", "format": "cell-based, human", "details": "1 μmole, FIG. 9", "experimental": "(§1) Furthermore, HaCaT cell line was treated with the acetyl-decapeptide of this invention (1 μg/ml) and the level of procollagen, one of indicators to show the improvement in skin wrinkle, was examined (FIG. 8). The level of procollagen was measured using Procollagen ELISA kit (Takara). For verifying effects on levels of laminin and hyaluronic acid, another indicator representing the improvement in skin wrinkle, HaCaT cell line was incubated with the acetyl-decapeptide of this invention (1 μmole) and levels of laminin and hyaluronic acid were measured using Laminin ELISA kit (CHEMICON, USA) and Hyaluronic acid ELISA kit (Echelon Biosciences Inc, USA), respectively (FIG. 9)."}, "NIH-3T3 cell": {"test_system": "NIH-3T3 cell", "test": "stability in 50 mM Tris-HCl at 37° C., residual activity by MTT assay", "format": "physicochemical", "details": "50 mM Tris-HCl pH 8.0, 37° C., days 0-100, relative to day 0, FIG. 5", "experimental": "To evaluate stability of the purified acetyl decapeptide of Example 10, the decapeptide and acetyl decapeptide were dissolved in 50 mM Tris-HCl (pH 8.0) to a concentration of 10 μg/ml. A recombinant bFGF produced E. coli (Sigma-Aldrich) was prepared as a control in the same buffer to a concentration of 1 μg/ml. The prepared solutions were introduced into glass vials and kept to stand at 37° C. Afterwards, the solutions were taken on days 0, 1, 10, 25, 50, 75 and 100 and subjected to MTT assay (Scudiero, D. A., et al. Cancer Res. 48:4827-4833 (1988)) using NIH-3T3 cell (Korean Cell Line Bank) to determine residual activities of peptides and bFGF (FIG. 5). The results were given as relative values to the activity (100%) of sample taken on day 0."}, "3T3 fibroblast": {"test_system": "3T3 fibroblast", "test": "[3H]-thymidine incorporation in 3T3 fibroblast", "format": "cell-based", "details": "3T3 cells, 2 ng/ml serially diluted two-fold, FIG. 4", "experimental": "The biological activities of the purified acetyl-decapepetide of Example 10 were evaluated using 3T3 fibroblast (The Korean Cell Line Bank) according to Rizzino et al method to measure [^3H]-thymidine incorporation (Rizzino, et al. Cancer Res., 48:4266 (1988)). 3T3 cells were cultured in 250 ml-flasks containing EMEM (Eagle's minimal essential media, Gibco, U.S.A.) supplemented with […] (fetal bovine serum). 3T3 cells cultured were treated with 0.25% trypsin solution to detach cells from the bottom of culture flasks and centrifuged to collect cell pellets. Cells were resuspended in EMEM not containing FBS, its aliquot, 2×10^4 cells/0.3 ml medium was added to each well of 24-well plates and cultured under 7% CO2 for 24 hr at 37° C. 2 ng/ml of the acetyl decapeptide of this invention was serially diluted by two-fold using EMEM containing 0.2 (w/v) % bovine serum albumin and 0.3 ml of the diluted peptide was added to each well, followed by additional culturing under 7% CO2 for 6 hr at 37° C. Afterwards, 0.5 μCi of [^3H]-thymidine (Amersham, TRK 686, 68 Ci/mmol) was added to each well and incubated overnight. […] The dried filters were added along with 2 ml of scintillation cocktail to scintillation vials and allowed to stand for 30 min at room temperature, after which radioactivity incorporated into cells was determined using a scintillation counter (Beckman, U.S.A)."}, "laminin": {"test_system": "laminin", "test": "laminin level in HaCaT cells (Laminin ELISA kit)", "format": "cell-based, human", "details": "1 μmole, FIG. 9", "experimental": "as §1"}, "procollagen": {"test_system": "procollagen", "test": "procollagen level in HaCaT cells (Procollagen ELISA kit)", "format": "cell-based, human", "details": "1 μg/ml, FIG. 8", "experimental": "as §1"}}, "data": [{"molecule": "C[C@]12CCC(=O)C[C@@H]1CC[C@@H]1[C@@H]2CC[C@]2(C)[C@@H](O)CC[C@@H]12", "note": "[DHT, dihydrotestosterone]", "values": [{"measurement": "hair growth", "setting": "Balb C mice", "result": "hair growth was barely observed"}]}, {"molecule": "Ac-YRSRKYTSWY-OH [acetyl decapeptide]", "values": [{"measurement": "binding to bFGF receptor in competition with 125I-bFGF", "setting": "[1]; 200 fmol 125I-bFGF, 1-100 nmol peptide, 2 hr", "result": "binds to bFGF receptor in a competitive manner with bFGF"}, {"measurement": "binding potency to bFGF receptor", "setting": "[1]", "result": "higher binding potency"}, {"measurement": "cell viability / proliferation of HaCaT keratinocytes", "setting": "HaCaT keratinocytes", "result": "much higher cell viability than control"}, {"measurement": "level of hyaluronic acid", "setting": "hyaluronic acid", "result": "induce the elevation of levels of laminin and hyaluronic acid"}, {"measurement": "residual activity over time (stability)", "setting": "NIH-3T3 cell", "result": "excellent stability"}, {"measurement": "[3H]-thymidine incorporation into fibroblasts", "setting": "3T3 fibroblast", "result": "promotes thymidine incorporation into fibroblasts in a dose-dependent fashion"}, {"measurement": "level of laminin", "setting": "laminin", "result": "induce the elevation of levels of laminin and hyaluronic acid"}, {"measurement": "level of procollagen in cells", "setting": "procollagen", "result": "increased in a time-dependent manner"}]}, {"molecule": "decapeptide: unprotected bFGF-derived decapeptide, presumably the amino acid sequence of SEQ ID NO:1 (YRSRKYTSWY) (peptide having functions and actions of basic fibroblast growth factor)", "values": [{"measurement": "residual activity over time (stability)", "setting": "NIH-3T3 cell", "result": "not to be decreased over time"}]}, {"molecule": "recombinant bFGF: recombinant bFGF produced E. coli (Sigma-Aldrich), prepared as a control", "values": [{"measurement": "residual activity over time (stability)", "setting": "NIH-3T3 cell", "result": "sharply decreased with the lapse of time"}]}]}
